What was measured:
Format in all cases: biochemical
JAK1 = target: T1, JAK1 (Homo sapiens, UniProt P23458); experiment: JAK1 kinase assay (HTRF, inhibition of phosphorylation of a synthetic peptide); conditions: catalytic domain aa 850-1154, GST-tag; 7 μM ATP (Km); read-out: JAK1 kinase inhibitory activity (EC50)
T1 construct: JAK1 (aa 850-1154) and TYK2 (aa 871-1187) are expressed with an N-terminally fused GST-tag; GST (N); purchased Carna Biosciences, Inc; host or cells: baculovirus expression system
Method in brief: (§1)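 HTRF detection (streptavidin-XL665, cryptate anti-phospho antibody, overnight in the dark) after EDTA stop of a 20-30 min RT reaction on 1 μM TK substrate-biotin. Km-level ATP per kinase: 7 μM for JAK1 and 13 μM for TYK2, both N-terminal GST, with 50 nM SEB; 4 μM for JAK2 and 2 μM for JAK3, both His-tagged. Catalytic domains only; DMSO 0.75%.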

JAK2 = target: T2, JAK2 (Homo sapiens, UniProt O60674); experiment: JAK2 kinase assay (HTRF, inhibition of phosphorylation of a synthetic peptide); conditions: catalytic domain, His-tag; 4 μM ATP (Km); read-out: JAK2 kinase inhibitory activity (EC50)
T2 construct: All four purified enzymes contain only the catalytic domain; His (N); purchased Carna Biosciences, Inc; host or cells: baculovirus expression system
Method in brief: as §1

JAK3 = target: T3, JAK3 (Homo sapiens, UniProt P52333); experiment: JAK3 kinase assay (HTRF, inhibition of phosphorylation of a synthetic peptide); conditions: catalytic domain, His-tag; 2 μM ATP (Km); read-out: JAK3 kinase inhibitory activity (EC50)
T3 construct: All four purified enzymes contain only the catalytic domain; His (N); purchased Carna Biosciences, Inc; host or cells: baculovirus expression system
Method in brief: as §1

T1 sequence (P23458 850-1154): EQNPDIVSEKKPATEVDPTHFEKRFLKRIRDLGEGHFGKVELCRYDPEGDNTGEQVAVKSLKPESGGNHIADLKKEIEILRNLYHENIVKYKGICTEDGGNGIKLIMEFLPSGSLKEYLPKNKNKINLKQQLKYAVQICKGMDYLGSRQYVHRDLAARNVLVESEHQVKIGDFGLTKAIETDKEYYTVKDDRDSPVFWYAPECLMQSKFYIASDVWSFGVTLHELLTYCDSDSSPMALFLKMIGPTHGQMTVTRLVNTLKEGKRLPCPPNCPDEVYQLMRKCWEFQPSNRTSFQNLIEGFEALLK
T2 sequence (O60674 849-1124 limits assumed): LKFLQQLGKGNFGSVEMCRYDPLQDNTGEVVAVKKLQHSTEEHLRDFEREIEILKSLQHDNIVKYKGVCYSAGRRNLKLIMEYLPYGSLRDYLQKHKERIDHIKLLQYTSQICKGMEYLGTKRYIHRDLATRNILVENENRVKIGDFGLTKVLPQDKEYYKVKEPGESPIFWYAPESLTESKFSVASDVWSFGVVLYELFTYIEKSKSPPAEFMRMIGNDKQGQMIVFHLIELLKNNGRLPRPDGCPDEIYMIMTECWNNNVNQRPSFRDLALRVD
T3 sequence (P52333 822-1111 limits assumed): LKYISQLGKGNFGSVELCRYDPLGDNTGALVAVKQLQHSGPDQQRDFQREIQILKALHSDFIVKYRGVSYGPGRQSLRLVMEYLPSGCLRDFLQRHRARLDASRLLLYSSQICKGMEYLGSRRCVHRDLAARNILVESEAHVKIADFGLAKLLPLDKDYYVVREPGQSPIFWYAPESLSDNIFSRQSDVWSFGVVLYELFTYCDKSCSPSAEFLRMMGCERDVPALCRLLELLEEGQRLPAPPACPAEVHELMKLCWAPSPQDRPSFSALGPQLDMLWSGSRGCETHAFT

SMILES	EC50 (JAK1)	EC50 (JAK2)	EC50 (JAK3)
O=C(Cc1cncs1)N1CCN(c2ncnc3[nH]ccc23)CC2(CC2)C1 [Example 252, 1-[5-(7H-pyrrolo[2,3-d]pyrimidin-4-yl)-5,8-diazaspiro[2.6]nonan-8-yl]-2-thiazol-5-yl-ethanone]	0.1 to 1 µM	< 0.1 µM	0.1 to 1 µM
O=C(Cc1ccccc1)N1CCN(c2ncnc3[nH]ccc23)CC2(CC2)C1 [Example 259, 2-phenyl-1-[5-(7H-pyrrolo[2,3-d]pyrimidin-4-yl)-5,8-diazaspiro[2.6]nonan-8-yl]ethanone]	0.1 to 1 µM	< 0.1 µM	0.1 to 1 µM
O=C(N1CCN(c2ncnc3[nH]ccc23)CC2(CC2)C1)C1(c2ccccc2)CC1 [Example 260, (1-phenylcyclopropyl)-[5-(7H-pyrrolo[2,3-d]pyrimidin-4-yl)-5,8-diazaspiro[2.6]nonan-8-yl]methanone]	> 1 µM	0.1 to 1 µM	> 1 µM
COc1ccc(CC(=O)N2CCN(c3ncnc4[nH]ccc34)CC3(CC3)C2)cc1 [Example 261, 2-(4-methoxyphenyl)-1-[5-(7H-pyrrolo[2,3-d]pyrimidin-4-yl)-5,8-diazaspiro[2.6]nonan-8-yl]ethanone]	0.1 to 1 µM	< 0.1 µM	0.1 to 1 µM
O=C(Cc1ccc2ccccc2c1)N1CCN(c2ncnc3[nH]ccc23)CC2(CC2)C1 [Example 265, 2-(2-naphthyl)-1-[5-(7H-pyrrolo[2,3-d]pyrimidin-4-yl)-5,8-diazaspiro[2.6]nonan-8-yl]ethanone]	0.1 to 1 µM	< 0.1 µM	0.1 to 1 µM
N#CCc1ccc(CC(=O)N2CCN(c3ncnc4[nH]ccc34)CC3(CC3)C2)cc1 [Example 266, 2-[4-[2-oxo-2-[5-(7H-pyrrolo[2,3-d]pyrimidin-4-yl)-5,8-diazaspiro[2.6]nonan-8-yl]ethyl]phenyl]acetonitrile]	< 0.1 µM	< 0.1 µM	0.1 to 1 µM
CC(C)(C)c1ccc(CC(=O)N2CCN(c3ncnc4[nH]ccc34)CC3(CC3)C2)cc1 [Example 267, 2-(4-tert-butylphenyl)-1-[5-(7H-pyrrolo[2,3-d]pyrimidin-4-yl)-5,8-diazaspiro[2.6]nonan-8-yl]ethanone]	0.1 to 1 µM	0.1 to 1 µM	0.1 to 1 µM
CN(C)c1ccc(CC(=O)N2CCN(c3ncnc4[nH]ccc34)CC3(CC3)C2)cc1 [Example 268, 2-(4-dimethylaminophenyl)-1-[5-(7H-pyrrolo[2,3-d]pyrimidin-4-yl)-5,8-diazaspiro[2.6]nonan-8-yl]ethanone]	0.1 to 1 µM	< 0.1 µM	0.1 to 1 µM
CC(C)(C(=O)N1CCN(c2ncnc3[nH]ccc23)CC2(CC2)C1)c1ccc(Cl)cc1 [Example 269, 2-(4-chlorophenyl)-2-methyl-1-[5-(7H-pyrrolo[2,3-d]pyrimidin-4-yl)-5,8-diazaspiro[2.6]nonan-8-yl]propan-1-one]	0.1 to 1 µM	0.1 to 1 µM	0.1 to 1 µM

Second part, the molecule after the results:

EC50 (JAK1)	EC50 (JAK2)	EC50 (JAK3)	SMILES
0.1 to 1 µM	0.1 to 1 µM	0.1 to 1 µM	Cc1cnc(C(=O)N2CCN(c3ncnc4[nH]ccc34)CC3(CC3)C2)s1 [Example 241, (5-methylthiazol-2-yl)-[5-(7H-pyrrolo[2,3-d]pyrimidin-4-yl)-5,8-diazaspiro[2.6]nonan-8-yl]methanone]
0.1 to 1 µM	0.1 to 1 µM	0.1 to 1 µM	Cc1nocc1C(=O)N1CCN(c2ncnc3[nH]ccc23)CC2(CC2)C1 [Example 244, (3-methylisoxazol-4-yl)-[5-(7H-pyrrolo[2,3-d]pyrimidin-4-yl)-5,8-diazaspiro[2.6]nonan-8-yl]methanone]
> 1 µM	0.1 to 1 µM	> 1 µM	Cc1nocc1C(=O)N1CCCN(c2ncnc3[nH]ccc23)CC12CC2 [Example 245, (3-methylisoxazol-4-yl)-[5-(7H-pyrrolo[2,3-d]pyrimidin-4-yl)-5,9-diazaspiro[2.6]nonan-9-yl]methanone]
0.1 to 1 µM	0.1 to 1 µM	> 1 µM	Cc1ncsc1CC(=O)N1CCN(c2ncnc3[nH]ccc23)CC2(CC2)C1 [Example 246, 2-(4-methylthiazol-5-yl)-1-[5-(7H-pyrrolo[2,3-d]pyrimidin-4-yl)-5,8-diazaspiro[2.6]nonan-8-yl]ethanone]
0.1 to 1 µM	< 0.1 µM	> 1 µM	Cc1ncc(CC(=O)N2CCN(c3ncnc4[nH]ccc34)CC3(CC3)C2)s1 [Example 247, 2-(2-methylthiazol-5-yl)-1-[5-(7H-pyrrolo[2,3-d]pyrimidin-4-yl)-5,8-diazaspiro[2.6]nonan-8-yl]ethanone]
0.1 to 1 µM	< 0.1 µM	> 1 µM	Cc1cc(CC(=O)N2CCN(c3ncnc4[nH]ccc34)CC3(CC3)C2)n[nH]1 [Example 248, 2-(5-methyl-1H-pyrazol-3-yl)-1-[5-(7H-pyrrolo[2,3-d]pyrimidin-4-yl)-5,8-diazaspiro[2.6]nonan-8-yl]ethanone]
0.1 to 1 µM	0.1 to 1 µM	> 1 µM	Cc1noc(C)c1CC(=O)N1CCN(c2ncnc3[nH]ccc23)CC2(CC2)C1 [Example 249, 2-(3,5-dimethylisoxazol-4-yl)-1-[5-(7H-pyrrolo[2,3-d]pyrimidin-4-yl)-5,8-diazaspiro[2.6]nonan-8-yl]ethanone]
0.1 to 1 µM	0.1 to 1 µM	0.1 to 1 µM	Cc1n[nH]c(CC(=O)N2CCN(c3ncnc4[nH]ccc34)CC3(CC3)C2)n1 [Example 250, 2-(3-methyl-1H-1,2,4-triazol-5-yl)-1-[5-(7H-pyrrolo[2,3-d]pyrimidin-4-yl)-5,8-diazaspiro[2.6]nonan-8-yl]ethanone]
< 0.1 µM	< 0.1 µM	0.1 to 1 µM	Cc1nonc1CC(=O)N1CCN(c2ncnc3[nH]ccc23)CC2(CC2)C1 [Example 251, 2-(4-methyl-1,2,5-oxadiazol-3-yl)-1-[5-(7H-pyrrolo[2,3-d]pyrimidin-4-yl)-5,8-diazaspiro[2.6]nonan-8-yl]ethanone]
0.1 to 1 µM	0.1 to 1 µM	> 1 µM	Cn1cc(CC(=O)N2CCN(c3ncnc4[nH]ccc34)CC3(CC3)C2)cn1 [Example 253, 2-(1-methylpyrazol-4-yl)-1-[5-(7H-pyrrolo[2,3-d]pyrimidin-4-yl)-5,8-diazaspiro[2.6]nonan-8-yl]ethanone]
0.1 to 1 µM	0.1 to 1 µM	> 1 µM	Cc1nc(CC(=O)N2CCN(c3ncnc4[nH]ccc34)CC3(CC3)C2)cs1 [Example 254, 2-(2-methylthiazol-4-yl)-1-[5-(7H-pyrrolo[2,3-d]pyrimidin-4-yl)-5,8-diazaspiro[2.6]nonan-8-yl]ethanone]
0.1 to 1 µM	0.1 to 1 µM	> 1 µM	Cc1nnc(C(=O)N2CCCN(c3ncnc4[nH]ccc34)CC23CC3)[nH]1 [Example 257, (5-methyl-4H-1,2,4-triazol-3-yl)-[5-(7H-pyrrolo[2,3-d]pyrimidin-4-yl)-5,9-diazaspiro[2.6]nonan-9-yl]methanone]
0.1 to 1 µM	< 0.1 µM	> 1 µM	Cc1cccc(CC(=O)N2CCN(c3ncnc4[nH]ccc34)CC3(CC3)C2)c1 [Example 262, 2-(m-tolyl)-1-[5-(7H-pyrrolo[2,3-d]pyrimidin-4-yl)-5,8-diazaspiro[2.6]nonan-8-yl]ethanone]

— patent US9586961B2, “Homopiperazine derivatives as protein tyrosine kinase inhibitors and pharmaceutical use thereof” (LEO PHARMA A/S, priority 2010, dated 2017)
